Test results published in patent US20240270762A1, “PENICILLIN-BINDING PROTEIN INHIBITORS” (priority 2021, published 2024).
Converted amounts (≈) assume the structure as drawn.

Assays:
[1] = test system: P. aeruginosa CDC-0110; assay: microbe, parasite or virus in culture; type: cell-based; conditions: Pseudomonas aeruginosa, CDC0110, read-out: Minimum inhibitory concentration, P. aeruginosa CDC-0110
[2] = test system: A. baumannii CDC-0045; assay: microbe, parasite or virus in culture; type: cell-based; conditions: Acinetobacter baumannii, CDC0045, read-out: MIC, A. baumannii CDC-0045
[3] = test system: P. aeruginosa (ΔmexAB-oprM); assay: Broth microdilution MIC in iron-depleted CAMHB (IDM); type: cell-based; conditions: Pseudomonas aeruginosa; iron-depleted CAMHB (IDM); […]; read-out: Minimum inhibitory concentration, P. aeruginosa ΔmexAB-oprM
[4] = target: T1, A. baumannii PBP1a (Acinetobacter baumannii, UniProt A0ABX6CK30); assay: Bocillin-FL competition binding via gel filtration, A. baumannii PBP1a; conditions: competition binding assay using Bocillin-FL via gel filtration; read-out: A. baumannii PBP1a Potency
T1 sequence (A0ABX6CK30 1-851): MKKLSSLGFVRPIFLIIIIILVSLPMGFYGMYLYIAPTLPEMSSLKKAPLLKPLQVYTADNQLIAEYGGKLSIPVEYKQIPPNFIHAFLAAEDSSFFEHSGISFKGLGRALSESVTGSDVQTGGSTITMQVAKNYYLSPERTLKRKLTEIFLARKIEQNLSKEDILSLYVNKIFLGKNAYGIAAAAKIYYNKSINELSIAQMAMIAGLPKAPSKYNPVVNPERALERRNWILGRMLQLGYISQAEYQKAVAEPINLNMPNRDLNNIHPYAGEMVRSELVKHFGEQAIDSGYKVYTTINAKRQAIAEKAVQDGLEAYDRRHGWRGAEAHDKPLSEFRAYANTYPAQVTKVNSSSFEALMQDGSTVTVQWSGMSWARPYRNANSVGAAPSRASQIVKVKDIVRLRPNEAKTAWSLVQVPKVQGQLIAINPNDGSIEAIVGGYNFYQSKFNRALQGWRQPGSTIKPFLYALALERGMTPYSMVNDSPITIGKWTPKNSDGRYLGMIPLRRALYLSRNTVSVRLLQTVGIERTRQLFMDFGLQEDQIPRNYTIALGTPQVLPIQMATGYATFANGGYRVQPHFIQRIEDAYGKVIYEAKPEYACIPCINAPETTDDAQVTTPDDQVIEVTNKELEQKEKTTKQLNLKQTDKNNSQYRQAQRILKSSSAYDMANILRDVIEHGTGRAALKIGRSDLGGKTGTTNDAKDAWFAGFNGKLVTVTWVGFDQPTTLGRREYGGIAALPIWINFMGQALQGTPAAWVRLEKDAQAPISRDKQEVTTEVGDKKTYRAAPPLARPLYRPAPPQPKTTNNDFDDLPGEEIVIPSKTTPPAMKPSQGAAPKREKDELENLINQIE
In short: (§1)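 Enzyme was pre-incubated with rising inhibitor concentrations, then Bocillin-FL was added and incubated 15 minutes more. Bound probe was separated by gel filtration and fluorescence read. EC50 came from fitting fraction of PBP labelled versus inhibitor concentration to a Hill equation with ymin, ymax and n.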

[5] = test system: A. baumannii ATCC 19606; assay: microbe, parasite or virus in culture; type: cell-based; conditions: Acinetobacter baumannii, ATCC19606, read-out: MIC, A. baumannii ATCC 19606
[6] = test system: A. baumannii CDC-0036; assay: microbe, parasite or virus in culture; type: cell-based; conditions: Acinetobacter baumannii, CDC0036, read-out: MIC, A. baumannii CDC-0036
[7] = test system: A. baumannii CDC-0083; assay: microbe, parasite or virus in culture; type: cell-based; conditions: Acinetobacter baumannii, CDC0083, read-out: MIC, A. baumannii CDC-0083
[8] = test system: A. baumannii 1258916; assay: microbe, parasite or virus in culture; type: cell-based, Acinetobacter baumannii; conditions: Acinetobacter baumannii, 1258916, read-out: MIC, A. baumannii 1258916
[9] = target: A. baumannii PBP2 (Acinetobacter baumannii, UniProt D0C8Z9); assay: Bocillin-FL competition binding via gel filtration, A. baumannii PBP2
A. baumannii PBP2, sequence (D0C8Z9 whole entry): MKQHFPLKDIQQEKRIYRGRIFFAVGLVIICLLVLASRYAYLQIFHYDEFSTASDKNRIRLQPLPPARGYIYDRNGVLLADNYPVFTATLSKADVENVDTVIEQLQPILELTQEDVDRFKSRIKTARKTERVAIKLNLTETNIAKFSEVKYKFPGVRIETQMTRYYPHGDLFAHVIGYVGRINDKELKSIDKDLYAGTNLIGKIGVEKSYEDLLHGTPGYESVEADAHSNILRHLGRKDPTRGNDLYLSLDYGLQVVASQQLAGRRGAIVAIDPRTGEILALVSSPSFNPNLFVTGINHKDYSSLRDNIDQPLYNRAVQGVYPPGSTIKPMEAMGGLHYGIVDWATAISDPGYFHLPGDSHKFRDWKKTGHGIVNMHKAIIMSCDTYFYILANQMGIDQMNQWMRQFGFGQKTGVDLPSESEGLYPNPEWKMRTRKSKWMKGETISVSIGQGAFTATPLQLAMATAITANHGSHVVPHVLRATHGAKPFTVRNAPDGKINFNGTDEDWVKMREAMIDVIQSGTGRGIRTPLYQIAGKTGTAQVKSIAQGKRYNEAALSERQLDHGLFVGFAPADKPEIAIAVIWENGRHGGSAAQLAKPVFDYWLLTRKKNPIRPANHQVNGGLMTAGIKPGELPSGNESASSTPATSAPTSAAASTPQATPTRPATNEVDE
In short: as §1

[10] = test system: A. baumannii ATCC 17978; assay: microbe, parasite or virus in culture; type: cell-based; conditions: Acinetobacter baumannii, ATCC17978, read-out: MIC, A. baumannii ATCC 17978
[11] = test system: B. humptydooensis ATCC BAA-2767; assay: microbe, parasite or virus in culture; type: cell-based; conditions: Burkholderia humptydooensis, ATCCBAA2767, read-out: Minimum inhibitory concentration (MIC), B. humptydooensis ATCC BAA-2767
[12] = test system: P. aeruginosa ATCC 27853; assay: microbe, parasite or virus in culture; type: cell-based; conditions: Pseudomonas aeruginosa, ATCC27853, read-out: Minimum inhibitory concentration, P. aeruginosa ATCC 27853
[13] = test system: P. aeruginosa CDC-0054; assay: microbe, parasite or virus in culture; type: cell-based; conditions: Pseudomonas aeruginosa, CDC0054, read-out: Minimum inhibitory concentration, P. aeruginosa CDC-0054

## O=C(O)c1c(F)ccc2c1OB(O)[C@@H](NC(=O)C(NC(=O)N1CCN(C3CCN(C(=O)Nc4cccc(O)c4)CC3)C(=O)C1=O)c1cc(F)c(O)c(O)c1Cl)C2 (stereo partly drawn) [Example 424, (3R)-3-(2-(2-chloro-5-fluoro-3,4-dihydroxyphenyl)-2-(4-(1-((3-hydroxyphenyl)carbamoyl)piperidin-4-yl)-2,3-dioxopiperazine-1-carboxamido)acetamido)-7-fluoro-2-hydroxy-3,4-dihydro-2H-benzo[e][1,2]oxaborinine-8-carboxylic acid]
[1]
  MIC: < 1 µg/mL
[2]
  MIC: < 1 µg/mL
[3]
  MIC: < 1 µg/mL
[4]
  EC50: < 10 µM
[5]
  MIC: < 1 µg/mL
[6]
  MIC: < 1 µg/mL
[7]
  MIC: 2 to 4 µg/mL (≈ 2.5 to 4.99 µM)
[8]
  MIC: < 1 µg/mL
[9]
  EC50: < 10 µM
[10]
  MIC: < 1 µg/mL
[11]
  MIC: 2 to 4 µg/mL (≈ 2.5 to 4.99 µM)
[12]
  MIC: < 1 µg/mL
[13]
  MIC: < 1 µg/mL

## O=C(NCCCN1CCN(C(=O)N[C@@H](C(=O)N[C@H]2Cc3ccc(F)c(C(=O)O)c3OB2O)c2cc(F)c(O)c(O)c2Cl)C(=O)C1=O)c1ccncc1O [Example 296, (R)-3-((R)-2-(2-chloro-5-fluoro-3,4-dihydroxyphenyl)-2-(4-(3-(3-hydroxyisonicotinamido)propyl)-2,3-dioxopiperazine-1-carboxamido)acetamido)-7-fluoro-2-hydroxy-3,4-dihydro-2H-benzo[e][1,2]oxaborinine-8-carboxylic acid]
[1]
  MIC: < 1 µg/mL
[2]
  MIC: < 1 µg/mL
[3]
  MIC: < 1 µg/mL
[4]
  EC50: < 10 µM
[5]
  MIC: < 1 µg/mL
[6]
  MIC: < 1 µg/mL
[7]
  MIC: < 1 µg/mL
[8]
  MIC: < 1 µg/mL
[9]
  EC50: < 10 µM
[10]
  MIC: < 1 µg/mL
[11]
  MIC: 2 to 4 µg/mL (≈ 2.63 to 5.26 µM)
[12]
  MIC: < 1 µg/mL
[13]
  MIC: < 1 µg/mL

## O=C(NCCS(=O)(=O)N1CCN(C(=O)N[C@@H](C(=O)N[C@H]2Cc3ccc(F)c(C(=O)O)c3OB2O)c2cc(F)c(O)c(O)c2Cl)C1=O)c1ccc(O)cc1 [Example 287, (R)-3-((R)-2-(2-chloro-5-fluoro-3,4-dihydroxyphenyl)-2-(3-((2-(4-hydroxybenzamido)ethyl)sulfonyl)-2-oxoimidazolidine-1-carboxamido)acetamido)-7-fluoro-2-hydroxy-3,4-dihydro-2H-benzo[e][1,2]oxaborinine-8-carboxylic acid]
[1]
  MIC: < 1 µg/mL
[2]
  MIC: < 1 µg/mL
[3]
  MIC: < 1 µg/mL
[4]
  EC50: 10 to 50 µM
[5]
  MIC: < 1 µg/mL
[6]
  MIC: 2 to 4 µg/mL (≈ 2.56 to 5.12 µM)
[7]
  MIC: < 1 µg/mL
[8]
  MIC: < 1 µg/mL
[9]
  EC50: < 10 µM
[10]
  MIC: < 1 µg/mL
[11]
  MIC: < 1 µg/mL
[12]
  MIC: 2 to 4 µg/mL (≈ 2.56 to 5.12 µM)
[13]
  MIC: 2 to 4 µg/mL (≈ 2.56 to 5.12 µM)

## O=C(NCCCN1CCN(C(=O)N[C@@H](C(=O)N[C@H]2Cc3ccc(F)c(C(=O)O)c3OB2O)c2cc(F)c(O)c(O)c2Cl)C1=O)Nc1ccc(O)cc1 [Example 284, (R)-3-((R)-2-(2-chloro-5-fluoro-3,4-dihydroxyphenyl)-2-(3-(3-(3-(4-hydroxyphenyl)ureido)propyl)-2-oxoimidazolidine-1-carboxamido)acetamido)-7-fluoro-2-hydroxy-3,4-dihydro-2H-benzo[e][1,2]oxaborinine-8-carboxylic acid]
[1]
  MIC: < 1 µg/mL
[2]
  MIC: < 1 µg/mL
[3]
  MIC: < 1 µg/mL
[4]
  EC50: < 10 µM
[5]
  MIC: < 1 µg/mL
[6]
  MIC: < 1 µg/mL
[7]
  MIC: 2 to 4 µg/mL (≈ 2.68 to 5.36 µM)
[8]
  MIC: < 1 µg/mL
[9]
  EC50: < 10 µM
[10]
  MIC: < 1 µg/mL
[11]
  MIC: < 1 µg/mL
[12]
  MIC: 2 to 4 µg/mL (≈ 2.68 to 5.36 µM)
[13]
  MIC: < 1 µg/mL

## O=C(O)c1c(F)ccc2c1OB(O)[C@@H](NC(=O)C(NC(=O)N1CCN(C3CCN(S(=O)(=O)c4cccc(O)c4)CC3)C(=O)C1=O)c1cc(F)c(O)c(O)c1Cl)C2 (stereo partly drawn) [Example 428, (3R)-3-(2-(2-chloro-5-fluoro-3,4-dihydroxyphenyl)-2-(4-(1-((3-hydroxyphenyl)sulfonyl)piperidin-4-yl)-2,3-dioxopiperazine-1-carboxamido)acetamido)-7-fluoro-2-hydroxy-3,4-dihydro-2H-benzo[e][1,2]oxaborinine-8-carboxylic acid]
[1]
  MIC: < 1 µg/mL
[2]
  MIC: < 1 µg/mL
[3]
  MIC: < 1 µg/mL
[4]
  EC50: < 10 µM
[5]
  MIC: < 1 µg/mL
[6]
  MIC: 2 to 4 µg/mL (≈ 2.43 to 4.87 µM)
[7]
  MIC: 8 to 16 µg/mL (≈ 9.73 to 19.5 µM)
[8]
  MIC: < 1 µg/mL
[9]
  EC50: < 10 µM
[10]
  MIC: < 1 µg/mL
[11]
  MIC: > 128 µg/mL
[12]
  MIC: 2 to 4 µg/mL (≈ 2.43 to 4.87 µM)
[13]
  MIC: < 1 µg/mL

## O=C(NCCCN1CCN(C(=O)NC(C(=O)N[C@H]2Cc3ccc(F)c(C(=O)O)c3OB2O)c2cc(F)c(O)c(O)c2Cl)C(=O)C1=O)c1ccc(F)c(O)c1F (stereo partly drawn) [Example 411, (3R)-3-(2-(2-chloro-5-fluoro-3,4-dihydroxyphenyl)-2-(4-(3-(2,4-difluoro-3-hydroxybenzamido)propyl)-2,3-dioxopiperazine-1-carboxamido)acetamido)-7-fluoro-2-hydroxy-3,4-dihydro-2H-benzo[e][1,2]oxaborinine-8-carboxylic acid]
[1]
  MIC: < 1 µg/mL
[2]
  MIC: 2 to 4 µg/mL (≈ 2.51 to 5.03 µM)
[3]
  MIC: < 1 µg/mL
[4]
  EC50: < 10 µM
[5]
  MIC: < 1 µg/mL
[6]
  MIC: 2 to 4 µg/mL (≈ 2.51 to 5.03 µM)
[7]
  MIC: 8 to 16 µg/mL (≈ 10.1 to 20.1 µM)
[8]
  MIC: 2 to 4 µg/mL (≈ 2.51 to 5.03 µM)
[9]
  EC50: < 10 µM
[10]
  MIC: < 1 µg/mL
[11]
  MIC: 2 to 4 µg/mL (≈ 2.51 to 5.03 µM)
[12]
  MIC: < 1 µg/mL
[13]
  MIC: < 1 µg/mL

## O=C(NCCCN1CCN(C(=O)NC(C(=O)N[C@H]2Cc3ccc(F)c(C(=O)O)c3OB2O)c2cc(F)c(O)c(O)c2Cl)C1=O)c1ccc(O)cc1 (stereo partly drawn) [Example 280, (3R)-3-(2-(2-chloro-5-fluoro-3,4-dihydroxyphenyl)-2-(3-(3-(4-hydroxybenzamido)propyl)-2-oxoimidazolidine-1-carboxamido)acetamido)-7-fluoro-2-hydroxy-3,4-dihydro-2H-benzo[e][1,2]oxaborinine-8-carboxylic acid]
[1]
  MIC: 2 to 4 µg/mL (≈ 2.73 to 5.47 µM)
[2]
  MIC: < 1 µg/mL
[3]
  MIC: < 1 µg/mL
[4]
  EC50: 10 to 50 µM
[5]
  MIC: < 1 µg/mL
[6]
  MIC: 2 to 4 µg/mL (≈ 2.73 to 5.47 µM)
[7]
  MIC: 2 to 4 µg/mL (≈ 2.73 to 5.47 µM)
[8]
  MIC: < 1 µg/mL
[9]
  EC50: 10 to 50 µM
[10]
  MIC: < 1 µg/mL
[11]
  MIC: 2 to 4 µg/mL (≈ 2.73 to 5.47 µM)
[12]
  MIC: 2 to 4 µg/mL (≈ 2.73 to 5.47 µM)
[13]
  MIC: 2 to 4 µg/mL (≈ 2.73 to 5.47 µM)
